Assay results from patent publication US6362181B1, “Isoquinolones” (Warner-Lambert Company, priority 1996, dated 2002).
pIC50: −log10 of the molar value. Values after ≈ are worked out from the molar mass of the structure shown. Counter-ions that a name gives are not always drawn.

Assays:
B. subtilis RB1 = test: Antibacterial assay, standard microtitration, MIC; format: cell-based; conditions: Gram positive; for MIC: Bacillus subtilis, read-out: Minimum Inhibitory Concentrations, B. subtilis RB1
Procedure: (§1) The compounds of the present invention were tested against an assortment of gram negative and gram positive organisms using standard microtitration techniques (Cohen, et al., Antimicrob. Agents Chemother., 1985;28:766; Heifetz, et al. Antimicrob. Agents Chemother., 1974;6:124).

E. coli B90 = test: Antibacterial assay, standard microtitration, MIC; format: cell-based; conditions: Gram negative; for MIC: Escherichia coli, read-out: Minimum Inhibitory Concentrations, E. coli B90
Procedure: as §1

E. coli MC4100 = test: Antibacterial assay, standard microtitration, MIC; format: cell-based; conditions: Gram negative; for MIC: Escherichia coli, read-out: Minimum Inhibitory Concentrations, E. coli MC4100
Procedure: as §1

S. aureus 29213 = test: Antibacterial assay, standard microtitration, MIC; format: cell-based; conditions: Gram positive; for MIC: Staphylococcus aureus, read-out: Minimum Inhibitory Concentrations, S. aureus 29213
Procedure: as §1

S. pyogenes C203 = test: Antibacterial assay, standard microtitration, MIC; format: cell-based; conditions: Gram positive; for MIC: Streptococcus pyogenes, read-out: Minimum Inhibitory Concentrations, S. pyogenes C203
Procedure: as §1

relaxed plasmid pBR322 = test: DNA intercalation/binding assay; conditions: pBR322 with calf thymus topoisomerase I, 30 minutes at 37° C.; read-out: Drug Concentration causing 50% Intercalation of DNA
Procedure: Compounds of the present invention were evaluated for their ability to intercalate/bind to DNA, using the procedure described in Nucleic Acids Research, 1987;15(15):6713. Specifically, 0.2 μg of relaxed plasmid pBR322 (Lucent, Ltd., Leicester, UK) was treated with 2 U of calf thymus topoisomerase I (Gibco/BRL, Gaithersburg, Md.) in buffer I (10 mM Tris-HCl (Ph 7.5), 50 mM KCl, 5 mM MgCl2, 1 mM Na2EDTA, 15 μg/mL bovine serum albumin) in the presence or absence of test compounds. Reaction were incubated for 30 minutes at 37° C.; volumes were typically 30 μL. Reactions were terminated by the addition of sodium dodecylsulfate (SDS) to 1% and proteinase K to 0.5 mg/mL final concentrations. After an additional 30 minutes at 37° C., one-tenth volume of 10×concentrated loading buffer (0.3% bromophenol blue, 16% Ficoll, 10 mM Na2HPO4) was added, and samples were loaded onto horizontal 0.8% agarose gels prepared in TAE buffer. Electrophoresis was at 22 V for 14 hours. Gels were then stained by soaking for 1.5 hours in deionized water containing 0.2 μg/mL of ethidium bromide, followed by destaining in deionized water for an additional 1.5 hours. Gels were examined and photographed following exposure to UV light. The concentration of the drug which induced a 50% change in the DNA by intercalation is represented by an intercalation IC50 and is recorded in Table 4.

E. coli To1C = test: Antibacterial assay, standard microtitration, MIC; format: cell-based; conditions: for MIC: Escherichia coli, TO1C, read-out: Minimum Inhibitory Concentrations, E. coli To1C
Procedure: as §1

E. coli gyrase = target: T1, E. coli gyrase (Escherichia coli, UniProt P0AES4+P0AES6); test: DNA gyrase supercoiling inhibition assay; format: biochemical
T1 construct: purchased Lucent, Ltd., Leicester, UK
Procedure: The effects of test agents on the activity of DNA gyrase was determined by the supercoiling inhibition assay, following reaction conditions recommended by the enzyme supplier (Lucent, Ltd., Leicester, UK), as follows. Reactions were performed in buffer G (35 mM Tris-HCL (pH 7.5), 24 mM KCl, 4 mM MgCl2, 2 mM DTT, 1.8 mM spermidine, 1 mM ATP, 0.1 mg/mL bovine serum albumin). 0.25 μg of relaxed plasmid pBR322 (Lucent, Ltd., Leicester, UK) was reacted with 1 U E. coli gyrase (Lucent, Ltd., Leicester, UK), in the absence or presence of drugs, for 30 minutes at 37° C. Reactions were stopped by the addition of SDS and proteinase K to respective final concentrations of 1% and 0.5 mg/mL. After an additional 30 minutes at 37° C., one-tenth volume of 10×loading buffer (0.3% bromophenol blue, 16% Ficoll, 10 mM Na2HPO4) was added, and reactions were loaded onto agarose gels and electrophoresed as described above for intercalation assays. The concentration of drug inhibiting 50% of the supercoiling activity of DNA gyrase is given as an IC50 and recorded in Table 2.

T1 sequence (P0AES4 whole entry, one chain of several): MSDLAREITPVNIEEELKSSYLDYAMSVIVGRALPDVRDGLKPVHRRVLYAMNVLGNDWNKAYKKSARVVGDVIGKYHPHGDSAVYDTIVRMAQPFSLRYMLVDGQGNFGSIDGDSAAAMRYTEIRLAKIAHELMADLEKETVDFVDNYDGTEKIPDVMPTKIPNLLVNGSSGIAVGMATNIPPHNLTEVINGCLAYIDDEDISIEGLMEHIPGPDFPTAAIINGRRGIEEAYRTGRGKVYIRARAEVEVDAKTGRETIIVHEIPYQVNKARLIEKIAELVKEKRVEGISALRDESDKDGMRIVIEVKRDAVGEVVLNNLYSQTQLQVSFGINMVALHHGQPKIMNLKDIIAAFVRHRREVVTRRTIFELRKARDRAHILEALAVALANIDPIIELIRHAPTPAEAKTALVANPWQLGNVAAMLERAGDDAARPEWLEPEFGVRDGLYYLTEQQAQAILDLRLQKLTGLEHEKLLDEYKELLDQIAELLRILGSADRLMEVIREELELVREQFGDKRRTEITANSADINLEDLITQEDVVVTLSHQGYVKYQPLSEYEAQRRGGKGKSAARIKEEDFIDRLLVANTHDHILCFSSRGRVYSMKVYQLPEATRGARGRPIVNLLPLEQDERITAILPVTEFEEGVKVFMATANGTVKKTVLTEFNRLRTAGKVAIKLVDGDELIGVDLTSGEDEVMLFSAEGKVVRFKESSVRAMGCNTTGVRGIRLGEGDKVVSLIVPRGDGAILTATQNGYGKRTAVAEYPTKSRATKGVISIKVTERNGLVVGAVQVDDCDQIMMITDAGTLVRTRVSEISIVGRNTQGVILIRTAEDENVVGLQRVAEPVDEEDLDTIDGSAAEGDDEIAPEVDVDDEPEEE

O=C1c2cccc3c(N4CCNCC4)c([N+](=O)[O-])cc(c23)C(=O)N1O
melting point: 300 to 302 °C

NCC1CCN(c2c(Cl)cc3c4c(cccc24)C(=O)N(O)C3=O)C1 (centres unmarked) (as salt: HCl) [Example 85]
melting point: 229 to 232 °C

CC1(CN)CCN(c2c(Cl)cc3c4c(cccc24)C(=O)N(O)C3=O)C1 (centres unmarked) (as salt: TFA) [Example 89]
melting point: 160 to 166 °C

CN1CCN(c2c(Cl)cc3c4c(cccc24)C(=O)N(O)C3=O)CC1 (as salt: TFA) [Example 98]
melting point: > 250 °C

CN(C)CCN1C(=O)c2cccc3cc(N)cc(c23)C1=O [Amonafide, amonafide, reference compound]
MIC (B. subtilis RB1): 64 µg/mL (≈ 226 µM) | MIC (E. coli B90): 16 µg/mL (≈ 56.5 µM) | MIC (E. coli MC4100): 64 µg/mL (≈ 226 µM) | MIC (S. aureus 29213): 128 µg/mL (≈ 452 µM) | MIC (S. pyogenes C203): 4 µg/mL (≈ 14.1 µM) | pIC50 (relaxed plasmid pBR322): > 5.00

O=C1c2cccc3cc([N+](=O)[O-])cc(c23)C(=O)N1O [Example 1, 2-Hydroxy-5-nitro-benzo[de]isoquinoline-1,3-dione]
MIC (B. subtilis RB1): 8 µg/mL (≈ 31 µM) | MIC (E. coli B90): 2 µg/mL (≈ 7.75 µM) | MIC (E. coli MC4100): 4 µg/mL (≈ 15.5 µM) | MIC (S. aureus 29213): 8 µg/mL (≈ 31 µM) | MIC (S. pyogenes C203): 32 µg/mL (≈ 124 µM) | pIC50 (relaxed plasmid pBR322): < 4.00

O=C1c2cccc3c([N+](=O)[O-])ccc(c23)C(=O)N1O [Example 2, 2-Hydroxy-6-nitro-benzo[de]isoquinoline-1,3-dione]
MIC (B. subtilis RB1): 4 µg/mL (≈ 15.5 µM) | MIC (E. coli B90): 4 µg/mL (≈ 15.5 µM) | MIC (E. coli MC4100): 8 µg/mL (≈ 31 µM) | MIC (S. aureus 29213): 2 µg/mL (≈ 7.75 µM) | MIC (S. pyogenes C203): 4 µg/mL (≈ 15.5 µM) | pIC50 (relaxed plasmid pBR322): < 4.00

Nc1ccc2c3c(cccc13)C(=O)N(O)C2=O [Example 7, 6-Amino-2-hydroxy-benzo[de]isoquinoline-1,3-dione]
MIC (B. subtilis RB1): 16 µg/mL (≈ 70.1 µM) | MIC (E. coli B90): 4 µg/mL (≈ 17.5 µM) | MIC (E. coli MC4100): 4 µg/mL (≈ 17.5 µM) | MIC (E. coli To1C): 4 µg/mL (≈ 17.5 µM) | MIC (S. aureus 29213): 8 µg/mL (≈ 35.1 µM) | MIC (S. pyogenes C203): > 64 µg/mL | pIC50 (relaxed plasmid pBR322): < 4.00

O=C1c2cccc3cc(F)cc(c23)C(=O)N1O [Example 11, 5-Fluoro-2-hydroxy-benzo[de]isoquinoline-1,3-dione]
MIC (B. subtilis RB1): 8 µg/mL (≈ 34.6 µM) | MIC (E. coli B90): 2 µg/mL (≈ 8.65 µM) | MIC (E. coli MC4100): 8 µg/mL (≈ 34.6 µM) | MIC (S. aureus 29213): 64 µg/mL (≈ 277 µM) | MIC (S. pyogenes C203): > 64 µg/mL | pIC50 (relaxed plasmid pBR322): < 4.00

COc1cc2c3c(cccc3c1N)C(=O)N(O)C2=O [Example 30, 6-Amino-2-hydroxy-5-methoxy-benzo[de]isoquinoline-1,3-dione]
MIC (B. subtilis RB1): 4 µg/mL (≈ 15.5 µM) | MIC (E. coli B90): 4 µg/mL (≈ 15.5 µM) | MIC (E. coli MC4100): 8 µg/mL (≈ 31 µM) | MIC (E. coli To1C): 2 µg/mL (≈ 7.74 µM) | MIC (S. aureus 29213): 4 µg/mL (≈ 15.5 µM) | MIC (S. pyogenes C203): 64 µg/mL (≈ 248 µM) | pIC50 (relaxed plasmid pBR322): < 4.00

CC(=O)Nc1cc2c3c(cccc3c1N1CCCCC1)C(=O)C(O)C2=O (centres unmarked) [Example 65]
melting point: 252 to 255 °C

CC(=O)Nc1cc2c3c(cccc3c1[SH]1CCNCC1)C(=O)C(O)C2=O (centres unmarked) [Example 67]
melting point: 292 to 295 °C

Nc1cc2c3c(cccc3c1N1CCCCC1)C(=O)N(O)C2=O [Example 71]
MIC (B. subtilis RB1): 2 µg/mL (≈ 6.42 µM) | MIC (E. coli B90): 4 µg/mL (≈ 12.8 µM) | MIC (E. coli MC4100): > 64 µg/mL | MIC (E. coli To1C): 4 µg/mL (≈ 12.8 µM) | MIC (S. aureus 29213): 2 µg/mL (≈ 6.42 µM) | MIC (S. pyogenes C203): 16 µg/mL (≈ 51.4 µM) | melting point: 244 to 248 °C

Nc1cc2c3c(cccc3c1[SH]1CCNCC1)C(=O)N(O)C2=O [Example 73]
melting point: 270 to 274 °C

O=C1c2cccc3c(N4CCCCC4)c([N+](=O)[O-])cc(c23)C(=O)N1O [Example 77]
melting point: 252 to 254 °C

O=C1c2cccc3c([SH]4CCNCC4)c([N+](=O)[O-])cc(c23)C(=O)N1O [Example 78]
melting point: 280 to 283 °C

CN1CCN(c2c([N+](=O)[O-])cc3c4c(cccc24)C(=O)N(O)C3=O)CC1 [Example 80]
melting point: 320 to 322 °C

NC1CCN(c2c([N+](=O)[O-])cc3c4c(cccc24)C(=O)N(O)C3=O)C1 (centres unmarked) [Example 82]
melting point: 259 to 263 °C

O=C1c2cccc3c(N4CC[C@H](O)C4)c(Cl)cc(c23)C(=O)N1O [Example 84]
melting point: 197 to 201 °C

NCC1CCN(c2c(Cl)cc3c4c(cccc24)C(=O)N(O)C3=O)C1 (centres unmarked) [Example 85]
MIC (B. subtilis RB1): 1 µg/mL (≈ 2.89 µM) | MIC (E. coli B90): 0.5 µg/mL (≈ 1.45 µM) | MIC (E. coli MC4100): 1 µg/mL (≈ 2.89 µM) | MIC (E. coli To1C): 0.25 µg/mL (≈ 0.723 µM) | MIC (S. aureus 29213): 4 µg/mL (≈ 11.6 µM) | MIC (S. pyogenes C203): 4 µg/mL (≈ 11.6 µM) | pIC50 (E. coli gyrase): 5.68

O=C1c2cccc3c(N4CCCCC4)c(Cl)cc(c23)C(=O)N1O [Example 94]
melting point: 228 to 229 °C

O=C1c2cccc3c([SH]4CCNCC4)c(Cl)cc(c23)C(=O)N1O [Example 95]
melting point: 240 to 242 °C

CCCCNC(=O)Nc1cc2c3c(cccc3c1)C(=O)N(O)C2=O [Example 100]
melting point: > 250 °C

CNC(=O)Nc1cc2c3c(cccc3c1)C(=O)N(O)C2=O [Example 101]
melting point: > 250 °C

CCCNC(=O)Nc1cc2c3c(cccc3c1)C(=O)N(O)C2=O [Example 102]
MIC (B. subtilis RB1): 16 µg/mL (≈ 51.1 µM) | MIC (E. coli B90): 32 µg/mL (≈ 102 µM) | MIC (E. coli MC4100): > 64 µg/mL | MIC (E. coli To1C): 16 µg/mL (≈ 51.1 µM) | MIC (S. aureus 29213): > 64 µg/mL | MIC (S. pyogenes C203): > 64 µg/mL | melting point: > 250 °C

O=C1c2cc([N+](=O)[O-])cc3c(N4CCCC4)c([N+](=O)[O-])cc(c23)C(=O)N1O [Example 111, 2-Hydroxy-5,8-dinitro-6-(pyrrolidin-1-yl)-benzo[de]isoquinoline-1,3-dione]
MIC (B. subtilis RB1): 32 µg/mL (≈ 86 µM) | MIC (E. coli B90): 2 µg/mL (≈ 5.37 µM) | MIC (E. coli MC4100): > 64 µg/mL | MIC (E. coli To1C): 4 µg/mL (≈ 10.7 µM) | MIC (S. aureus 29213): 8 µg/mL (≈ 21.5 µM) | MIC (S. pyogenes C203): > 64 µg/mL

CN1COc2cc3c4c(cccc4c2C1)C(=O)N(O)C3=O [Example 127]
melting point: 247 to 249 °C

CCCCCN1COc2cc3c4c(cccc4c2C1)C(=O)N(O)C3=O [Example 129]
melting point: 194 to 196 °C

O=C1c2cccc3c4c(cc(c23)C(=O)N1O)OCN(C1CC1)C4 [Example 131]
Minimum Inhibitory Concentrations, B. subtilis RB1 (B. subtilis RB1): 32 µg/mL | Minimum Inhibitory Concentrations, E. coli B90 (E. coli B90): 8.0 µg/mL | Minimum Inhibitory Concentrations, E. coli MC4100 (E. coli MC4100): 32 µg/mL | Minimum Inhibitory Concentrations, E. coli To1C (E. coli To1C; Gram negative, E. coli To1C): 8.0 µg/mL | Minimum Inhibitory Concentrations, S. aureus 29213 (S. aureus 29213): >64 µg/mL | Minimum Inhibitory Concentrations, S. pyogenes C203 (S. pyogenes C203): >64 µg/mL

O=C1c2cccc3c(N4CCCC4)c(F)cc(c23)C(=O)N1O [Example 134, 5-Fluoro-2-hydroxy-6-(pyrrolidin-1-yl)-benzo[de]isoquinoline-1,3-dione]
MIC (B. subtilis RB1): 1 µg/mL (≈ 3.33 µM) | MIC (E. coli B90): 0.5 µg/mL (≈ 1.67 µM) | MIC (E. coli MC4100): > 64 µg/mL | MIC (E. coli To1C): 0.5 µg/mL (≈ 1.67 µM) | MIC (S. aureus 29213): 1 µg/mL (≈ 3.33 µM) | MIC (S. pyogenes C203): 8 µg/mL (≈ 26.6 µM)
